Read-outs that look alike come from different tables or passages of the source.
Experiments:
[1] = molecular target: T1, alcohol dehydrogenase from L. brevis (Levilactobacillus brevis, UniProt Q84EX5); experiment: biochemical; type: biochemical; details: for Activity: 0.19 mM NADPH, pH 7.0, purified enzyme diluted 1:10
T1 sequence (Q84EX5 2-252): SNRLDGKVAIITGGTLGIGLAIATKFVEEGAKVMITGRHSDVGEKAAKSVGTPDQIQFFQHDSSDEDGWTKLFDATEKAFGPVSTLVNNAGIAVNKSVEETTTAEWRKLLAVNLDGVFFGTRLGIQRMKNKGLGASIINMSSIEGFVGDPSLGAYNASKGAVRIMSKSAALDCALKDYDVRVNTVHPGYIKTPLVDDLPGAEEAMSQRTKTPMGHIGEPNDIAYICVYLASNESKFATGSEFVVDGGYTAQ
Experimental: A series of other ketones and keto esters were used instead of acetophenone and it was tested whether these can be reduced by enzyme catalysis.
The following test mixture was used for this:
970 μl triethanolamine buffer (50 mM; pH 7.0, containing 10 mM keto compound)
20 μl NADPH (0.19 mM in the test)
Some of the ketones were also tested at a concentration of 1 mM in order to verify a possible substrate inhibition at 10 mM.

[2] = Temperature optimum of enzyme activity; type: biochemical
[3] = Temperature stability of the alcohol dehydrogenase (30 min at temperature, measured at 30° C.); type: physicochemical
Experimental: The temperature stability in the range of 25 to 70° C. was determined in an analogous manner to that described under A. The homogeneous enzyme solution was subjected for 30 min to the recited temperatures and subsequently measured directly at 30° C. with the above test mixture. […] In contrast the ADH from L. kefir is only stable up to 40° C. with a maximum at 37° C., afterwards the activity decreases rapidly. The maximum for this enzyme is at 37° C.

[4] = relative to acetophenone = 100, 10 mM keto compound, read-out: Relative act.
[5] = relative to acetophenone = 100, 10 mM keto compound

| Compound | Activity ([1]; 10 mM keto compound) [U/ml] | activity at 10000 µM ([1]; read-out: Relative act.) [%] | activity at 10000 µM [1, 4] [%] | further results |
| --- | --- | --- | --- | --- |
| CCOC(=O)CC(C)=O [aceto acetic acid ethyl ester] | 3.54 | 109 |  |  |
| CCOC(=O)CCC(C)=O [laevulinic acid ethyl ester] | 2.99 |  | 92 |  |
| CCOC(=O)C(F)(F)F [trifluoroacetic acid ethyl ester] | 0.50 | 15 |  |  |
| CC(=O)c1ccccc1Cl [2-Cl-acetophenone] | 0.33 | 10 |  |  |
| CC(=O)CC(=O)OCc1ccccc1 [aceto acetic acid benzyl ester] | 4.11 |  | 126 |  |
| alcohol dehydrogenase from Lactobacillus kefir: NADP-dependent R-alcohol dehydrogenase from Lactobacillus kefir (DE 40 14 573 C1), comparison enzyme [reference compound] |  |  |  | optimal test temperature (activity maximum) [2]: 37 °C; act. (temperature optimum) ([2]; test temperature 20° C.): 28.0 U/ml; act. (temperature optimum) ([2]; test temperature 25° C.): 28.2 U/ml; act. (temperature optimum) ([2]; test temperature 30° C.): 35.2 U/ml; act. (temperature optimum) ([2]; test temperature 35° C.): 36.2 U/ml; act. (temperature optimum) ([2]; test temperature 40° C.): 34.4 U/ml; act. (temperature optimum) ([2]; test temperature 45° C.): 35.4 U/ml; act. (temperature optimum) ([2]; test temperature 50° C.): 26.0 U/ml; act. (temperature optimum) ([2]; test temperature 55° C.): 3.0 U/ml; act. (temperature optimum) ([2]; test temperature 60° C.): 0 U/ml; temperature at which the enzyme is inactivated by 50% (thermal deactivation) [3]: 45 °C; temperature of maximum stability ([3]; 30 min): 37 °C; temperature range in which the enzyme is stable ([3]; 30 min): up to 40 °C; act. (temperature stability) ([3]; 30 min at 25° C.): 36.5 U/ml; act. (temperature stability) ([3]; 30 min at 30° C.): 30.2 U/ml; act. (temperature stability) ([3]; 30 min at 37° C.): 35.8 U/ml; act. (temperature stability) ([3]; 30 min at 40° C.): 32 U/ml; act. (temperature stability) ([3]; 30 min at 45° C.): 26.2 U/ml; act. (temperature stability) ([3]; 30 min at 50° C.): 2.4 U/ml; act. (temperature stability) ([3]; 30 min at 55° C.): 0 U/ml |
| CC1CCCCC1=O (stereo not drawn) [2-methylcyclohexanone] | 6.25 |  | 192 |  |
| CCOC(=O)C(C)=O [ethyl pyruvate] | 8.10 |  | 248 |  |
| CCc1ccc(C(C)=O)cc1 [4-ethylacetophenone] | 2.13 | 65 |  |  |
| CCOC(=O)CCCC(C)=O [4-acetylbutyric acid ethyl ester] | 2.84 |  | 87 |  |
| CCC(=O)CC(=O)OC [3-oxo-n-valeric acid methyl ester] | 2.26 |  | 69 |  |
| CCOC(=O)CC(=O)CCl [4-Cl-acetic acid ethyl ester] | 3.04 | 93 |  |  |
| CCOC(=O)CC(=O)C(C)C [isobutyrylacetic acid ethyl ester] | 1.93 |  | 59 |  |
| CCOC(=O)C(C)C(C)=O (stereo not drawn) [ethyl-2-methylacetoacetate] | 0.84 |  | 26 |  |
| CCOC(=O)CC1CCCCC1=O (stereo not drawn) [cyclohexanone-2-acetic acid ethyl ester] | 0.14 |  | 4 |  |
| C(CCOCC1CO1)COCC1CO1 (stereo not drawn) [1,4-butanediol-diglyceridyl ether] | 0.77 | 24 |  |  |
| CC(=O)CCc1ccccc1 [benzylacetone] | 3.24 |  |  | activity at 10000 µM ([1]; read-out: Relative act., relative to acetophenone = 100, 10 mM keto compound): 99% |
| CCCCOC(C)=O [acetic acid butyl ester] | 2.07 | 64 |  |  |

| Compound | Activity ([1]; 10 mM keto compound) [U/ml] | activity at 10000 µM ([1]; read-out: Relative act.) [%] | activity at 10000 µM [1, 4] [%] | further results |
| --- | --- | --- | --- | --- |
| ketovaleric acid | 0.27 |  |  | Relative act. [1, 5]: 8% |
| CC(=O)c1ccc(Cl)cc1 [4-Cl-acetophenone] | 6.63 | 203 |  |  |
| CC(=O)Cc1ccccc1 [benzylmethyl ketone] | 0.36 | 11 |  |  |
| CCOC(=O)CC(=O)c1ccccc1 [benzoyl acetic acid ethyl ester] | 1.14 |  | 35 |  |
| CC(=O)c1cccc2ccccc12 [methyl-1-naphthyl ketone] | 1.21 |  | 37 |  |
| CC(=O)c1cccc(Cl)c1 [3-Cl-acetophenone] | 4.80 | 147 |  |  |
| CC(=O)CCCC(=O)O [4-acetylbutyric acid] | 0.32 |  | 10 |  |
| COC(=O)CC(C)=O [aceto acetic acid methyl ester] | 3.81 | 117 |  |  |
| CC(=O)CO [hydroxyacetone] | 0.74 |  | 23 |  |
| CCOC(=O)C1CCCCC1=O (stereo not drawn) [cyclohexanone-2-carboxylic acid ethyl ester] | 0.41 |  | 13 |  |
| CCCC(=O)CC(=O)OCC [ethylbutyryl acetate] | 2.21 |  | 68 |  |
| CCOC(=O)C(=O)CCc1ccccc1 [2-oxo-4-phenylbutyric acid ethyl ester] | 4.60 |  |  | Relative act. [1, 5]: 141% |
| COC(=O)C(C)=O [methyl pyruvate] | 3.22 |  | 98 |  |
| CCOC(=O)CC(=O)CC [3-oxo-n-valeric acid ethyl ester] | 2.29 |  | 70 |  |
| CCOC(=O)C(=O)CCc1ccccc1 [ethyl-2-oxo-4-phenyl butyrate] | 0.40 |  |  | Relative act. [1, 5]: 12% |
| CCC(=O)c1ccccc1 [propiophenone] | 0.55 | 17 |  |  |
| O=Cc1ccccc1 [benzaldehyde] | 0.30 | 9 |  |  |
| CC(=O)CC(C)=O [2,4-pentanedione] | 4.22 | 130 |  |  |

Source: patent US6037158A, “Alcohol dehydrogenase and its use for the enzymatic production of chiral hydroxy compounds” (priority 1996, dated 2000)
